Data taken from article PMC10812672, “Short Antimicrobial Peptide Derived from the Venom Gland Transcriptome of Pamphobeteus verdolaga Increases Gentamicin Susceptibility of Multidrug-Resistant Klebsiella pneumoniae” (Antibiotics, 2023).

Experiments:
E. coli = conditions: custom database compiled from public databases and PubMed; averaged where multiple reports; cited from earlier work
Description: (§1) Agelaia-CP Agelaia pallipes […] […] 13 1 4.00 1.25 s IsCT [EK7. GP8. Opisthacanthus SK11] madagascariensi […] 13 4 2.00 1.17 s Opisthacanthus IsCT [EK7] madagascariensi […] 13 3 2.00 1.00 s Opisthacanthus IsCT [WL6. SK11 ] madagascariensi ILGKILKGIKKLF 13 4 2.00 2.00 s Opisthacanth ... || (+ 2 further places)

S. aureus = conditions: custom database compiled from public databases and PubMed; averaged where multiple reports; cited from earlier work
Description: as §1

[1] = tested on: multidrug-resistant (MDR) strain of K. pneumoniae, clinical isolate; test: microbe, parasite or virus in culture; assay type: cell-based, Klebsiella pneumoniae
Description: A multidrug-resistant (MDR) strain of K. pneumoniae was identified and isolated from a tertiary-level hospital in Medellin, Colombia, using the VITEK-2 system (bioMérieux, Marcy-l’Étoile, France). The MDR strain was evaluated against several antibiotics at concentrations of 1.56–100 μM. […] In contrast, the strain was susceptible to doxycycline (Supplementary Figure S7g) and chloramphenicol (Supplementary Figure S7h), with MICs of 50 μM and 100 µM, respectively (Table 3). […] All of P. verdolaga’s AMPs were evaluated against the clinical isolate at concentrations of 1.56–200 µM (Supplementary Figure S8). […] A growth inhibition kinetic assay was conducted. […] All of P. verdolaga’s peptides at 100 μM induced morphological changes in the MDR K. pneumoniae, indicating membrane interactions, even though no significant inhibition was observed (Supplementary Figure S9).
The evaluation of the antimicrobial activity of the peptides was conducted using the CLSI’s broth microdilution method for bacterial susceptibility testing. For the screening phase, peptides were evaluated at a single 30 μM concentration, in triplicate and in three independent assays, against the E. coli ATCC® 8739, E. coli ATCC® 25922, S. aureus ATCC® 6538, or S. aureus ATCC® 29213 reference USP and CLSI strains. For the determination of MIC, MBC, or IC50, peptides or antibiotics were evaluated in concentrations between 1.56–200 µM. These evaluations were conducted in triplicate and in three independent assays, against the E. coli ATCC® 25922, S. aureus ATCC® 29213, E. faecalis ATCC® 49532, P. aeruginosa ATCC® 9027, and K. pneumoniae ATCC® BAA-1705, or the clinically isolated MDR strain. In detail, 1 mL of a glycerol stock solution of the ATCC® or clinically isolated bacterial strain was added to 9 mL of Mueller-Hinton Broth and incubated for 18 h, 180 rpm and 37 °C (Incubator 1000, Heidolph Instruments, Schwabach, Germany). After the incubation, 1 mL of the previous solution was transferred to a new recipient containing 9 mL of fresh Mueller-Hinton broth and incubated for 4 h, 180 rpm and 37 °C (Incubator 1000, Heidolph Instruments, Schwabach, Germany). During the second incubation, the peptides or the antibiotics were dissolved in PBS pH 7.20 in concentrations between 19.53–2500 µM (MC5 Micro Balance, Sartorius AG, Göttingen, Germany). An amount of 10 µL of either peptide or antibiotic was dispensed in triplicate in 96-well flat bottom culture plates, along with 10 µL of PBS (Negative activity control), BTM-P1 (Positive activity control), or 10 µL of Mueller-Hinton broth (Blank); then, 110 µL of Mueller-Hinton broth was poured in all wells. Following this, the bacteria were suspended in Mueller-Hinton broth up to a concentration of approximately 1.50 × 10^8 CFU/mL, as measured by optical density at 600 nm between 0.06 to 0.11 (0.5 McFarland standard), in a Multiskan SkyHigh spectrophotometer (ThermoFisher Scientific, Waltham, MA, USA). Amounts of 5 µL of the 1.50 × 10^8 CFU/mL suspension were added to each well (except for the blank) for a final well concentration of approximately 6 × 10^6 CFU/mL. The plate was incubated for 24 h at 37 °C (BE 500, Memmert GmbH, Büchenbach, Germany) and optical density was measured at 600 nm in a Multiskan SkyHigh spectrophotometer (ThermoFisher Scientific, Waltham, MI, USA). Following the measurement of optical density, plates were visually inspected to determine the MIC. Subsequently, 100 µL of the concentration associated to the MIC and 100 µL of the next higher concentration were added to Petri dishes containing Mueller-Hinton Agar. The dishes were then incubated for 24 h at 37 °C (BE 500, Memmert GmbH, Büchenbach, Germany). After incubation, the Petri dishes were visually inspected, and the MBC was determined in the absence of growth. IC50 values were interpolated from regressions with correlation values above 0.70. […]

Molecule	MIC E. coli (E. coli) [µM]	MIC S. aureus (S. aureus) [µM]	other results
FFGSLLSLGSKLLPSVFKLFQRKKE [Css54, cDB AMP; Centruroides suffusus suffusus]	4.35	4.35	–
VNWKKILGKIIKVVK [Lasioglossin LL-III, cDB AMP; Lasioglossum laticeps]	1.40	3.90	–
FLFKLIPKAIKGLLKAFK [AcrAP2 [S4K.N8K.S11K.S15K], cDB AMP; Androctonus crassicauda]	8.00	4.00	–
VNWKKILGKIIKVAK [Lasioglossin LL-II, cDB AMP; Lasioglossum laticeps]	1.40	9.00	–
GFGMALKLLKKVL [Macropin 1, cDB AMP; Macropis fulvipes]	3.00	3.70	–
FLFKLIPKAIKGLIKAFK [AcrAP1a [S4K.H8K.S11K.S15K]] [cDB AMP; Androctonus crassicauda]	8.00	4.00	–
penicillin	–	–	maximum growth inhibition ([1]; MDR K. pneumoniae, at 100 μM, complete resistance): ≤ 20%
ILGKIWKIKKLF [IsCT precursor, cDB AMP; Opisthacanthus madagascariensis]	2.00	2.00	–
SIGRRGGYCAGIIKQTCTCYR [Longicin (53-73), cDB AMP; Haemaphysalis longicornis]	2.00	2.00	–
LNWGKILKHIIK [PNG-1/6, cDB AMP; Panurgus calcaratus]	4.00	8.70	–
ACHAHCQSVGRRGGYCGNFRMTCYCY [Midgut defensin G2, cDB AMP; Haemaphysalis longicornis]	5.94	5.09	–
ACQFWSCNSSCISRGYRQGYCWGIQYKYCQCQ [Defensin-1, cDB AMP; Centruroides limpidus limpidus]	13.08	13.08	–
VNWKKVLGKIIKVAK [Lasioglossin LL-I, cDB AMP; Lasioglossum laticeps]	1.70	14.3	–
ILKKIWKPIKKLF [IsCT-P, cDB AMP; Opisthacanthus madagascariensis]	2.00	1.00	–
LNWGALLKHLLK [PNG-1/19, cDB AMP; Panurgus calcaratus]	3.80	6.70	–
FWGALAKGALKLIGSLFSSFSKKD [Pandinin-2 [P14G], cDB AMP; Pandinus imperator]	12.50	12.50	–
PFKLSLHL [Jellein-1, cDB AMP; Apis mellifera]	2.62	10.48	–
GFLSILKKVLPKVMAHMK [Melectin, cDB AMP; Melecta albifrons]	10.37	12.80	–
FLFKLIPKAIKGLVKAIRK [AaeAP2 [S4.8.15K; A11K. N19K], cDB AMP; Androctonus aeneas]	10.99	8.24	–
FLGSLFSIGSKLLPGVIKLFQRKKQ [Im-5, cDB AMP; Isometrus maculatus]	10.00	3.75	–
FIGAIARLLSKIFGKR [Bmkn2, cDB AMP; Mesobuthus martensii]	1.50	0.60	–

Molecule	MIC E. coli (E. coli) [µM]	MIC S. aureus (S. aureus) [µM]	other results
CRRLCYKQRCVTYCRGR [Gomesin, cDB AMP; Acanthoscurria gomesiana]	0.80	12.10	–
FLFSLIPSAISGLISAFKGRR [Marmelittin, cDB AMP; Mesobuthus martensii]	6.21	6.48	–
QCRRLCYKQRCVTYCRGR [Gomesin c(1-18)[Gln1], cDB AMP; Acanthoscurria gomesiana]	0.48	1.44	–
INLKAIAALAKKLLG [Mastoparan-like peptide 12c, cDB AMP; Vespa magnifica]	3.90	1.95	–
LKWGAILKHIIK [PNG-1/3, cDB AMP; Panurgus calcaratus]	3.70	11.70	–
CC1(C)S[C@@H]2[C@H](NC(=O)[C@H](N)c3ccccc3)C(=O)N2[C@H]1C(=O)O [ampicillin]	–	–	inhibition at 100 µM ([1]; Klebsiella pneumoniae, read-out: maximum growth inhibition): ≤ 20%
O=C(N[C@H](CO)[C@H](O)c1ccc([N+](=O)[O-])cc1)C(Cl)Cl [Chloramphenicol, chloramphenicol]	–	–	IC50 ([1]; Klebsiella pneumoniae): 56.2 µM; MIC ([1]; Klebsiella pneumoniae, 24 h, MDR K. pneumoniae clinical isolate, peptides 1.56–200 µM, antibiotics 1.56–100 µM, 24 h 37 °C): 100 µM; MIC ([1]; Klebsiella pneumoniae, MDR K. pneumoniae clinical isolate): 4.04 µg/mL; Classification at 10^6 CFU/mL ([1]; MDR K. pneumoniae clinical isolate, CLSI classification): Susceptible
FLFKLIPKAIKKLISKFK [AamAP1 [S4K.H8K.G11.12K.A16K], cDB AMP; Androctonus amoreuxi]	7.50	5.00	–
LNWKAILKHIIK [PNG-1/5, cDB AMP; Panurgus calcaratus]	2.30	5.30	–
GLLSKFGRLARKLARVIPKV [Pilosulin-2, cDB AMP; Myrmecia pilosula]	1.33	4.00	–
GMASLLAKVLPHVVKLIK [Codesane, cDB AMP; Colletes daviesanus]	3.70	3.70	–
LNWGAILKHIIK [PNG-1, cDB AMP; Panurgus calcaratus]	3.70	10.60	–
VWLSALKFIGKHLAKHQLSKL [Lycosin-II, cDB AMP; Lycosa singoriensis]	12.50	3.10	–
GMWSKILGHLIR [HAL-1, cDB AMP; Halictus sexcinctus]	3.80	7.70	–
FLFKLIPKAIKGLIKAFK [AcrAP1a, cDB AMP; Androctonus crassicauda]	4	8	–
LNWGAILKKIIK [PNG-1/9, cDB AMP; Panurgus calcaratus]	4.30	7.30	–
RRWCFRVCYKGFCYRKCR [Polyphemusin-2, cDB AMP; Limulus polyphemus]	3.87	5.14	–
FLFKLIPKVIKGLVKAIRK [AaeAP1 [S4.8.15K; A11K. N19K], cDB AMP; Androctonus aeneas]	10.85	8.14	–
GLHKVMREVLGYERNSYKKFFLR [Ixosin, cDB AMP; Ixodes sinensis]	10.45	1.29	–
RRWCFRVCYRGFCYRKCR [Polyphemusin-1, cDB AMP; Limulus polyphemus]	0.9	0.3	–
